Laboratory results published in ChEMBL document CHEMBL1201862, “PubChem BioAssay data set” (2004).
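Where inhibition never reached the appropriate level, the endpoint shown equals the highest concentration tested. Otherwise, values were interpolated linearly from a five-concentration, 48-hour dose response in 96-well plates. Abbreviation: GI50, concentration required for 50% inhibition of growth.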 The source made the active and inactive calls. Rule as the data show it: active = GI50 up to about 1.1 µM and inactive = higher.

How the values were obtained:
Experiment in all cases: inhibition of tumour cell growth, NCI panel, 48 h
ACHN = tested on: ACHN
DU-145 = tested on: DU-145
HCT-116 = tested on: HCT-116
HCT-15 = tested on: HCT-15
HOP-92 = tested on: HOP-92
HT-29 = tested on: HT-29
M14 = tested on: M14
MDA-MB-231 = tested on: MDA-MB-231
OVCAR-4 = tested on: OVCAR-4
OVCAR-5 = tested on: OVCAR-5
OVCAR-8 = tested on: OVCAR-8
SK-MEL-28 = tested on: SK-MEL-28
SK-MEL-2 = tested on: SK-MEL-2
SK-MEL-5 = tested on: SK-MEL-5
SNB-19 = tested on: SNB-19
SW-620 = tested on: SW-620
TK-10 = tested on: TK-10
UACC-62 = tested on: UACC-62
NCI/ADR-RES = tested on: NCI/ADR-RES
SR = tested on: SR

Compound	GI50 (ACHN)	GI50 (DU-145)	GI50 (HCT-116)	GI50 (HCT-15)	GI50 (HOP-92)	GI50 (HT-29)	GI50 (M14)	GI50 (MDA-MB-231)	GI50 (OVCAR-4)	GI50 (OVCAR-5)	GI50 (OVCAR-8)	GI50 (SK-MEL-28)	GI50 (SK-MEL-2)	GI50 (SK-MEL-5)	GI50 (SNB-19)	GI50 (SW-620)	GI50 (TK-10)	GI50 (UACC-62)	GI50 (NCI/ADR-RES)	GI50 (SR)
COC(=O)CC[N+]1=CCC(c2ccccc2)(c2ccccc2)O1	> 100 µM (inactive)	> 100 µM (inactive)	> 100 µM (inactive)	> 100 µM	> 100 µM (inactive)	> 100 µM (inactive)	> 100 µM (inactive)	> 100 µM (inactive)	> 100 µM (inactive)	> 100 µM (inactive)	> 100 µM (inactive)	> 100 µM (inactive)	> 100 µM (inactive)	> 100 µM (inactive)	> 100 µM (inactive)	> 100 µM (inactive)	> 100 µM (inactive)	> 100 µM (inactive)	–	–
O/N=N\c1nc(-c2cccnc2)nc2ccccc12	> 100 µM (inactive)	> 100 µM (inactive)	> 100 µM (inactive)	96.8 µM	–	47.8 µM (inactive)	> 100 µM (inactive)	> 100 µM (inactive)	> 100 µM (inactive)	> 100 µM (inactive)	> 100 µM (inactive)	> 100 µM (inactive)	–	> 100 µM (inactive)	> 100 µM (inactive)	> 100 µM (inactive)	> 100 µM (inactive)	> 100 µM (inactive)	> 100 µM (inactive)	–
c1cc(-c2ccsc2-c2ccsc2)cs1	> 100 µM (inactive)	–	52.1 µM (inactive)	47.8 µM	> 92.3 µM (inactive)	> 100 µM (inactive)	> 100 µM (inactive)	> 100 µM (inactive)	> 55.3 µM (inactive)	> 100 µM (inactive)	> 100 µM (inactive)	> 100 µM (inactive)	28.5 µM (inactive)	71.1 µM (inactive)	> 100 µM (inactive)	> 91.8 µM (inactive)	> 100 µM (inactive)	> 88.9 µM (inactive)	> 100 µM (inactive)	16.3 µM (inactive)
CC(C)CC(NC(=O)C(Cc1ccccc1)NC(=O)[C@H]1CC[C@H](NC(=O)C(Cc2ccc(OC(C)(C)C)cc2)NC(=O)OC(C)(C)C)C1)C(N)=O (stereo not given in full)	39.8 µM (inactive)	–	14.7 µM (inactive)	18 µM	23.8 µM (inactive)	18.9 µM (inactive)	16.6 µM (inactive)	31.9 µM (inactive)	29 µM (inactive)	31 µM (inactive)	18.4 µM (inactive)	20.2 µM (inactive)	20.2 µM (inactive)	1.07 µM (active)	38.4 µM (inactive)	29.2 µM (inactive)	29.3 µM (inactive)	18.7 µM (inactive)	> 100 µM (inactive)	29.9 µM (inactive)
CC(C)c1ccc(C(O)(C(=O)O)c2ccc(C(C)C)cc2)cc1	40.2 µM (inactive)	61.2 µM (inactive)	36.6 µM (inactive)	46.6 µM	31.8 µM (inactive)	48.9 µM (inactive)	63.5 µM (inactive)	–	42.6 µM (inactive)	> 100 µM (inactive)	54.1 µM (inactive)	64.9 µM (inactive)	–	56.8 µM (inactive)	45 µM (inactive)	61.8 µM (inactive)	79.3 µM (inactive)	44.6 µM (inactive)	73.5 µM (inactive)	60.8 µM (inactive)
COC1C(O)CC(OC2CC(OC3CC(O[C@@H]4C(=O)c5c(cc6cc(OC7CC(OC8CC(O)C(O)C(C)O8)C(O)C(C)O7)c(C)c(O)c6c5O)C[C@H]4[C@H](OC)C(=O)[C@@H](O)[C@@H](C)O)OC(C)C3O)OC(C)C2O)OC1C (stereo not given in full)	< 0.0191 µM (active)	< 0.01 µM (active)	< 0.01 µM (active)	0.673 µM	< 0.014 µM (active)	< 0.0168 µM (active)	0.0267 µM (active)	0.0574 µM (active)	0.0671 µM (active)	< 0.0175 µM (active)	< 0.0193 µM (active)	< 0.0126 µM (active)	< 0.0129 µM (active)	< 0.0138 µM (active)	< 0.0194 µM (active)	< 0.0228 µM (active)	0.0431 µM (active)	< 0.0131 µM (active)	–	< 0.01 µM (active)
COC(=O)C1C(O)C(C(=O)OC)C(C)N(C)C1C (stereo not given)	> 100 µM (inactive)	–	> 100 µM (inactive)	> 100 µM	> 100 µM (inactive)	> 100 µM (inactive)	> 100 µM (inactive)	> 100 µM (inactive)	> 100 µM (inactive)	> 100 µM (inactive)	> 100 µM (inactive)	> 100 µM (inactive)	> 100 µM (inactive)	> 100 µM (inactive)	> 100 µM (inactive)	> 100 µM (inactive)	> 100 µM (inactive)	> 100 µM (inactive)	> 100 µM (inactive)	> 100 µM (inactive)
Cc1cc(N(CCC#N)CCC#N)ccc1/C=C1N=C(/C=C\c2ccccc2)OC\1=O	> 100 µM (inactive)	–	> 100 µM (inactive)	> 100 µM	> 100 µM (inactive)	> 100 µM (inactive)	> 100 µM (inactive)	–	> 100 µM (inactive)	> 100 µM (inactive)	> 100 µM (inactive)	> 100 µM (inactive)	> 100 µM (inactive)	> 100 µM (inactive)	> 100 µM (inactive)	> 100 µM (inactive)	> 100 µM (inactive)	> 100 µM (inactive)	–	30.3 µM (inactive)
CCOC(=O)C1=c2[nH]c3cccc4cccc(c43)n2C(=O)CC1	> 100 µM (inactive)	51.6 µM (inactive)	45.6 µM (inactive)	39.3 µM	30.5 µM (inactive)	–	> 100 µM (inactive)	–	> 100 µM (inactive)	> 100 µM (inactive)	56.5 µM (inactive)	> 100 µM (inactive)	> 100 µM (inactive)	65.3 µM (inactive)	> 100 µM (inactive)	29 µM (inactive)	> 100 µM (inactive)	> 100 µM (inactive)	> 100 µM (inactive)	> 100 µM (inactive)
Cc1ccc(NCCO)cc1	> 100 µM (inactive)	–	> 100 µM (inactive)	> 100 µM	97.1 µM (inactive)	> 100 µM (inactive)	> 100 µM (inactive)	–	> 100 µM (inactive)	> 100 µM (inactive)	> 100 µM (inactive)	> 100 µM (inactive)	> 100 µM (inactive)	> 100 µM (inactive)	> 100 µM (inactive)	> 100 µM (inactive)	> 100 µM (inactive)	> 100 µM (inactive)	–	> 100 µM (inactive)
CN1B(c2ccccc2)N(C)C(=O)N(C)C1=O	> 100 µM (inactive)	> 100 µM (inactive)	> 100 µM (inactive)	> 100 µM	> 100 µM (inactive)	> 100 µM (inactive)	> 100 µM (inactive)	–	–	> 100 µM (inactive)	> 100 µM (inactive)	–	> 100 µM (inactive)	> 100 µM (inactive)	> 100 µM (inactive)	> 100 µM (inactive)	> 100 µM (inactive)	> 100 µM (inactive)	> 100 µM (inactive)	–
N/N=C(\C(=O)Nc1ccc(Cl)cc1Cl)C(c1cnc2ccccc2n1)[N+](=O)[O-] (stereo not given)	71.1 µM (inactive)	–	26.7 µM (inactive)	> 100 µM	> 100 µM (inactive)	> 100 µM (inactive)	> 100 µM (inactive)	> 100 µM (inactive)	> 100 µM (inactive)	> 100 µM (inactive)	> 100 µM (inactive)	> 100 µM (inactive)	> 100 µM (inactive)	> 100 µM (inactive)	–	> 100 µM (inactive)	> 100 µM (inactive)	> 100 µM (inactive)	> 100 µM (inactive)	> 10 µM (inactive)
C#Cc1cc(-c2nc3ccccc3s2)ccc1N	24 µM (inactive)	16.7 µM (inactive)	16.6 µM (inactive)	17.5 µM	11 µM (inactive)	18 µM (inactive)	17.6 µM (inactive)	–	17.6 µM (inactive)	32 µM (inactive)	29.2 µM (inactive)	16.1 µM (inactive)	16.7 µM (inactive)	26.6 µM (inactive)	20 µM (inactive)	34.6 µM (inactive)	15.1 µM (inactive)	17.5 µM (inactive)	27.7 µM (inactive)	25.1 µM (inactive)
O=C(C#Cc1ccccc1)NC/C=C/c1ccccc1	42.6 µM (inactive)	–	41.7 µM (inactive)	38.9 µM	25.4 µM (inactive)	50.2 µM (inactive)	55.3 µM (inactive)	–	48.1 µM (inactive)	> 100 µM (inactive)	35.2 µM (inactive)	76.4 µM (inactive)	35.5 µM (inactive)	45.1 µM (inactive)	26.7 µM (inactive)	36.9 µM (inactive)	47.3 µM (inactive)	33.6 µM (inactive)	–	35.6 µM (inactive)
CCOC(=O)C(C(=O)OCC)=C1NC2(c3ccccc3Nc3ccc(C)cc32)C(C(=O)OC)S1 (stereo not given)	21.4 µM (inactive)	50.6 µM (inactive)	9.64 µM (inactive)	18.7 µM	4.92 µM (inactive)	23.9 µM (inactive)	27.6 µM (inactive)	–	21.9 µM (inactive)	20.9 µM (inactive)	29.4 µM (inactive)	> 100 µM (inactive)	14.7 µM (inactive)	13.9 µM (inactive)	55.3 µM (inactive)	48.6 µM (inactive)	46.9 µM (inactive)	20.8 µM (inactive)	17.5 µM (inactive)	6.34 µM (inactive)
